Results on 2 compounds are retold here after patent US20020127186A1, “Use of electrolytes (lons in solution) to suppress charging of inhalation aerosols” (priority 2000, published 2002).

Structures are written as SMILES.

Data set [1] is described as follows: Net aerosol electric charge of AERx aerosols, measured with a Faraday cup. The format is physicochemical. The protocol: The AERx™ system (as described and disclosed in U.S. Pat. Nos. 5,544,646 and 6,123,068) produces aerosols by extruding the liquid contents of a single dose blister packet (here 45 uL) through an array of micro-drilled holes. The jets formed during the extrusion process are entrained by the patient inhalation air flow. (Schuster J et al., In Drug Delivery to the Lungs VIII, pp14-17, 1997; Schuster J et al., In Respiratory Drug Delivery VI, pp. 83-90, 1998).
For the measurements of electric charge, the air flow was simulated with pressurized house air. A Faraday cup was inserted in the flow path of the aerosol a few centimeters downstream from the point of generation. It comprised a perforated aluminum cartridge filled with a paper filter, which was inserted into and insulated from a grounded metal enclosure, used as a shield from external electromagnetic noise. A coaxial wire connected to the aluminum cartridge was passed through the metal enclosure and connected to a current-voltage converter of the op-amp design (ammeter). The voltage output from the ammeter was acquired as a function of time by a computer together with other information about the extrusion process, such as the position of the piston that pressurizes the blister pack during an extrusion.
The formulations tested in EXAMPLES 1, 2 and 3 were de-ionized water (DI), sterile water for injection USP (WFI), 5 mM and 10 mM sodium chloride in water, and 30 mg/ml sodium cromoglycate (cromolyn) in water.
The region between aerosol generation and the Faraday cup was inspected after each extrusion (“run”), and any residue found was wiped clean. This region was all metallic in the system used here and comprised two separable parts, the so-called “clamp”, in which the packet is held and the aerosol is generated, and the so-called “diffuser”, which is positioned immediately downstream from the clamp. This diffuser was removed in some of the Examples herein discussed.
A measure of the net electric charge carried by the bolus was obtained from the numerical integral over time of the electric current signals. […]

Data set [2] in a line: Residue between aerosol generation and Faraday cup, inspected after each extrusion. The format is physicochemical. As to conditions: EXAMPLE 1, diffuser on; 30 mg/ml in water; compared with DI water. The source says:
The region between aerosol generation and the Faraday cup was inspected after each extrusion (“run”), and any residue found was wiped clean. This region was all metallic in the system used here and comprised two separable parts, the so-called “clamp”, in which the packet is held and the aerosol is generated, and the so-called “diffuser”, which is positioned immediately downstream from the clamp. This diffuser was removed in some of the Examples herein discussed. […] Several runs carried out with a “dummy” packet that contained no liquid (labeled “no article” by the “X” in FIG. 1) gave rise to no measurable levels of charge. […] The difference in residue is another indication of high charging.

[3] abbreviates: EXAMPLE 2, diffuser not present, solutions in water (5 and 10 mM NaCl; 30 mg/ml cromolyn), compared with WFI, FIG. 2.

As to `[Cl-].[Na+]` [NaCl, sodium chloride], the net aerosol charge entry in data set [1] (setting [3]) is given as “much lower charge than water for injection”.

Take `O=C(O)c1cc(=O)c2c(OCC(O)COc3cccc4oc(C(=O)O)cc(=O)c34)cccc2o1` [cromolyn, sodium cromoglycate]: the net aerosol charge entry is given as “significantly reduced charge level” in data set [1] (EXAMPLE 1, diffuser on, 30 mg/ml in water, compared with DI water, FIG. 1) and “much lower charge than water for injection” in data set [1] (setting [3]). The “residue in the diffuser” value in data set [2] is on record as “a small fraction of the initial packet contents”.
